Source: the NIST ThermoML archive (doi:10.1016/j.jct.2012.01.011)
± gives the expanded uncertainty stated by the source.

Test: molar heat capacity at constant pressure
Conditions: Liquid, Flow calorimetry

Row | molar heat capacity at constant pressure (293.15 K, 100 kPa) | molar heat capacity at constant pressure (293.15 K, 10000 kPa) | molar heat capacity at constant pressure (293.15 K, 20000 kPa) | molar heat capacity at constant pressure (293.15 K, 30000 kPa) | molar heat capacity at constant pressure (313.15 K, 100 kPa) | molar heat capacity at constant pressure (313.15 K, 10000 kPa) | molar heat capacity at constant pressure (313.15 K, 20000 kPa) | molar heat capacity at constant pressure (313.15 K, 30000 kPa) | molar heat capacity at constant pressure (333.15 K, 100 kPa) | molar heat capacity at constant pressure (333.15 K, 10000 kPa) | molar heat capacity at constant pressure (333.15 K, 20000 kPa) | molar heat capacity at constant pressure (333.15 K, 30000 kPa) | molar heat capacity at constant pressure (353.15 K, 100 kPa) | molar heat capacity at constant pressure (353.15 K, 10000 kPa) | molar heat capacity at constant pressure (353.15 K, 20000 kPa) | molar heat capacity at constant pressure (353.15 K, 30000 kPa) | Structure (SMILES)
1 | 810.3 ± 8.2 J/K/mol | 808.5 ± 8.2 J/K/mol | 805.6 ± 8.1 J/K/mol | 803 ± 8.1 J/K/mol | 846.5 ± 8.6 J/K/mol | 843.5 ± 8.5 J/K/mol | 840.1 ± 8.5 J/K/mol | 838.4 ± 8.5 J/K/mol | 878.1 ± 8.9 J/K/mol | 875.5 ± 8.8 J/K/mol | 873.4 ± 8.8 J/K/mol | 871.7 ± 8.8 J/K/mol | 910.9 ± 9.2 J/K/mol | 909.7 ± 9.2 J/K/mol | 907.1 ± 9.2 J/K/mol | 906.3 ± 9.2 J/K/mol | CCCCC(CC)COC(=O)CCCCCCCCC(=O)OCC(CC)CCCC (stereo not drawn) [bis(2-ethylhexyl) decanedioate]
2 | 879 ± 8.9 J/K/mol | 873.5 ± 8.8 J/K/mol | 868.5 ± 8.8 J/K/mol | 865.5 ± 8.7 J/K/mol | 904.4 ± 9.1 J/K/mol | 898.9 ± 9.1 J/K/mol | 896.4 ± 9.1 J/K/mol | 893.4 ± 9 J/K/mol | 943.3 ± 9.5 J/K/mol | 940.8 ± 9.5 J/K/mol | 936.1 ± 9.5 J/K/mol | 929.3 ± 9.4 J/K/mol | 978.8 ± 9.9 J/K/mol | 973.7 ± 9.8 J/K/mol | 963.2 ± 9.7 J/K/mol | 959.8 ± 9.7 J/K/mol | CC(C)CCCC(C)CCCC(C)CCCCC(C)CCCC(C)CCCC(C)C (stereo not drawn) [2,6,10,15,19,23-hexamethyltetracosane]

Row | Structure (SMILES) | molar heat capacity at constant pressure (293.15 K, 100 kPa) | molar heat capacity at constant pressure (293.15 K, 10000 kPa) | molar heat capacity at constant pressure (293.15 K, 20000 kPa) | molar heat capacity at constant pressure (293.15 K, 30000 kPa) | molar heat capacity at constant pressure (313.15 K, 100 kPa) | molar heat capacity at constant pressure (313.15 K, 10000 kPa) | molar heat capacity at constant pressure (313.15 K, 20000 kPa) | molar heat capacity at constant pressure (313.15 K, 30000 kPa) | molar heat capacity at constant pressure (333.15 K, 100 kPa) | molar heat capacity at constant pressure (333.15 K, 10000 kPa) | molar heat capacity at constant pressure (333.15 K, 20000 kPa) | molar heat capacity at constant pressure (333.15 K, 30000 kPa) | molar heat capacity at constant pressure (353.15 K, 100 kPa) | molar heat capacity at constant pressure (353.15 K, 10000 kPa) | molar heat capacity at constant pressure (353.15 K, 20000 kPa) | molar heat capacity at constant pressure (353.15 K, 30000 kPa)
3 | CCCCC(CC)COC(=O)c1ccccc1C(=O)OCC(CC)CCCC (stereo not drawn) [bis(2-ethylhexyl) 1,2-benzenedicarboxylate] | 703 ± 7.1 J/K/mol | 701.5 ± 7.1 J/K/mol | 699.9 ± 7.1 J/K/mol | 699.6 ± 7.1 J/K/mol | 726.9 ± 7.3 J/K/mol | 724.9 ± 7.3 J/K/mol | 723 ± 7.3 J/K/mol | 722 ± 7.3 J/K/mol | 751.3 ± 7.6 J/K/mol | 750 ± 7.6 J/K/mol | 747.5 ± 7.6 J/K/mol | 746 ± 7.5 J/K/mol | 774.5 ± 7.8 J/K/mol | 770.5 ± 7.8 J/K/mol | 767.9 ± 7.8 J/K/mol | 763.4 ± 7.7 J/K/mol
